# Assay results from US20150152083A1, “Compounds and Compositions for Modulating EGFR Activity” (IRM LLC, A Delaware Limited Liability Company, priority 2012, published 2015).
# Assays:
# EGFR(L858R/T790M) [1] = target: T1, EGFR(L858R/T790M) (Homo sapiens, UniProt P00533, L858R/T790M); assay: EGFR biochemical assay (HTRF), IC50 determination; parameters: purchased from Carna (GST-a.a. 669-1210); purchased Carna; conditions: 10 μM ATP
# Method: All EGFR biochemical assays were carried out by HTRF method. The EGFR(L858RT790M) enzyme were purchased from Carna (GST-a.a. 669-1210). The substrate peptide Biotin-TK-peptide was purchased from Cis-Bio. The reaction mixtures contained 1 μM peptide substrate, 10 μM ATP, and 0.036 nM EGFR(L858RT790M) in the reaction buffer (50 mM HEPES pH 7.1, 10 mM MgCl2, 0.01% BSA, 1 mM TCEP and 0.1 mM Na3VO4) at a final volume of 10 μL. All reactions were carried out at room temperature in white ProxiPlate™ 384-well Plus plates (PerkinElmer) and were quenched with 5 μL of 0.2 M EDTA at 60 min Five μL of the detection reagents (2.5 ng PT66K and 0.05 μg SAXL per well) were added, the plates were incubated at room temperature for 1 h and then read in EnVision reader. […] For no-preincubation condition, the compounds were added to the assay solution containing ATP and peptide, and the reaction was initiated by addition of enzyme. For pre-incubation conditions, the compounds were added to the assay solution containing enzyme and peptide, and pre-incubated at room temperature for desired period of time, then the reaction was initiated by addition of ATP.
# Target sequence in this assay (P00533 669-1210 T790M/L858R): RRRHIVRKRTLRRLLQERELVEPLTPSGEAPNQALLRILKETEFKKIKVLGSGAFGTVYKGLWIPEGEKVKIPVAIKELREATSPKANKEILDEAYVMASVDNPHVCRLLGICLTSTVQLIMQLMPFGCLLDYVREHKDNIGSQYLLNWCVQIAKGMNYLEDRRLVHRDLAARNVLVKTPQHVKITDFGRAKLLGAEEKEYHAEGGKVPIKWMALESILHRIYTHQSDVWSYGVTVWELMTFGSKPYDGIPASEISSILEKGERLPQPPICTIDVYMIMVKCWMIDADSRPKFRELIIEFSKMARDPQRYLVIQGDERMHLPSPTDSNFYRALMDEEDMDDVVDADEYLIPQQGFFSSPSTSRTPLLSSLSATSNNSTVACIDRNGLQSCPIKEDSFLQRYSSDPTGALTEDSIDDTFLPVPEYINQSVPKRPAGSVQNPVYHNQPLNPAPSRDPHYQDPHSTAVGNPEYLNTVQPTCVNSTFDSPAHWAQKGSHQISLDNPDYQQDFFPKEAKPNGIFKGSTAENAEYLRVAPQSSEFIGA
# EGFR(L858R/T790M) [2] = target: T1, EGFR(L858R/T790M); assay: EGFR target modulation in engineered NIH3T3 cell lines (phospho-EGFR AlphaLISA); format: cell-based; parameters: host or cells: NIH3T3; conditions: NIH3T3 cells expressing human EGFR L858R/T790M; 3 hours compound
# Method: (§1) EGFR Target Modulation in Engineered NIH3T3 Cell Lines
# (§2) NIH3T3 cell lines expressing human EGFR (WT, L858R, and L858RT790M) (obtained from Matthew Meyerson's Lab at DFCI) were maintained in 10% FBS/DMEM supplemented with 100 μg/ml Penicillin/Streptomycin (Hyclone #SV30010) and 2 μg/ml Puromycin. The cells were harvested with 0.05% Trypsin/EDTA (Hyclone #SH30236.01), re-suspended in 5% FBS/DMEM Pen/Strep without Puromycin and plated at 9,000 cells per well in 50 μl of media in a 384-well black plate with clear bottoms (Greiner #789068G). The cells were allowed to incubate overnight in a 37° C., 5% CO2 humidified tissue culture incubator. A 12-point test compound curve was prepared by serial diluting a 10 μM stock 1:3 in DMSO in a 384-well compound plate (Greiner #789201L). The serial diluted compounds were transferred to the plate containing cells by using a 50 nl Pin Head device (Perkin Elmer) and the cells were placed back in the incubator for 3 hours. Only the EGFR WT-expressing cells were induced with 50 ng/ml EGF (Preprotech #AF-100-15) for 5 minutes before lysis. The media was removed and cells were lysed in 25 μl of Lysis buffer containing protease and phosphatase inhibitors (1% Triton X-100, 20 mM Tris, pH 7.5, 1 mM EDTA, 1 mM EGTA, 150 mM NaCl, 1× complete cocktail inhibitor (Roche #11 697 498 001), 1× Phosphatase Inhibitor Cocktail Set II and Set III (Sigma #P5726 and #P0044)). The plates were shaken at 4° C. for 5 minutes with foil top at maximum speed. An aliquot of 5 μl from each well was transferred to ProxiPlate™ 384-well Plus plates (PE #6008289). The plates were sealed with a foil top and frozen at −80° C. and thawed when needed.
# (§3) The frozen aliquots were thawed and briefly centrifuged. All antibodies and beads were diluted in 1× AlphaLISA HiBlock Buffer (PE #AL004C). Biotinylated anti-phospho-EGFR (Y1068) (Cell Signaling #4031) was incubated with the lysate for 1 hour at room temperature at 1 nM final concentration. Goat anti-total EGFR (R&D Systems #AF231) was added and allowed to equilibrate for 1 hour at room temperature at 1 nM final concentration. Then, 10 μl of mixed beads (AlphaScreen Streptavidin Donor Beads (PE #6760002S) and AlphaLISA anti-goat IgG Acceptor Beads (PE #AL107C)) was equilibrated for 1.5 hours before reading on EnVision plate reader using the built-in settings for AlphaScreen.
# (§4) Cells untreated (L858R and L858RT790M) or EGF-induced (WT) were set to 100% maximum response. For a negative control, 10 μM HKI-272 was used to normalize data to 0% of maximum response. With these parameters, the IC50's for each compound in each cell line was calculated using non-linear curve fitting analysis.
# Target sequence in this assay (P00533 25-1210 T790M/L858R): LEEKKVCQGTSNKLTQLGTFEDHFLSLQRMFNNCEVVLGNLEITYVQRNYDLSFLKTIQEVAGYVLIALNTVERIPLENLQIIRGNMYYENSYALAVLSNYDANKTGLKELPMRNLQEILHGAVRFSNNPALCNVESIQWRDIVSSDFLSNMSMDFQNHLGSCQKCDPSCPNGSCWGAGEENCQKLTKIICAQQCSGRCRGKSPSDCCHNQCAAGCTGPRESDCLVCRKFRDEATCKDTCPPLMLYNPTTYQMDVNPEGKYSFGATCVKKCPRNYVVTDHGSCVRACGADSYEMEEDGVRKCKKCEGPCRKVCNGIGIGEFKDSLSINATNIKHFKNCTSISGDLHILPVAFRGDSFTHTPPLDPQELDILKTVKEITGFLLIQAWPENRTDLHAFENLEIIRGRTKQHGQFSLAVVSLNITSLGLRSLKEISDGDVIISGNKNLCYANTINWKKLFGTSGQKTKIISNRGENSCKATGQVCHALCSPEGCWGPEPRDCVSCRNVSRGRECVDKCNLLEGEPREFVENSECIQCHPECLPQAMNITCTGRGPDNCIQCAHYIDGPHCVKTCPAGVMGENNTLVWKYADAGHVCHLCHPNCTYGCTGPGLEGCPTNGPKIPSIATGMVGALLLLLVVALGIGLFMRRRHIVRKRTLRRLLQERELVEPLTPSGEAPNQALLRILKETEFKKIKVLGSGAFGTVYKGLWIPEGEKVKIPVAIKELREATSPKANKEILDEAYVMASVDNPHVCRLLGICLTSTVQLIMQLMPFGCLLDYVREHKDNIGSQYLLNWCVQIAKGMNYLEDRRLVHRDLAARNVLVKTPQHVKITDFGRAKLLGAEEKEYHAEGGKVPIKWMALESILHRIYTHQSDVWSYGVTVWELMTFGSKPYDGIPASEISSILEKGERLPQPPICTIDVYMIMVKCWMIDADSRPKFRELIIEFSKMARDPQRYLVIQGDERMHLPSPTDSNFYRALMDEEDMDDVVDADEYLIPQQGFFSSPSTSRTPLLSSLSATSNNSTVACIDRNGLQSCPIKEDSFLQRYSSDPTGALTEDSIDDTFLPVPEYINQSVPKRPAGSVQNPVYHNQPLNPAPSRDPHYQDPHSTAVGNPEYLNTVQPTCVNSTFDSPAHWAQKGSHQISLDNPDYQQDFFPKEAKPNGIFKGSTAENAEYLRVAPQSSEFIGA
# EGFR (L858R) = target: T2, EGFR (L858R) (Homo sapiens, UniProt P00533, L858R); assay: as above; format: cell-based; conditions: NIH3T3 cells expressing human EGFR L858R; 3 hours compound
# T2 construct: host or cells: NIH3T3
# Method: as §1, §2, §3, §4
# EGFR (WT) = target: T3, EGFR (WT) (Homo sapiens, UniProt P00533); assay: as above; format: cell-based; conditions: NIH3T3 cells expressing human EGFR WT; 3 hours compound; induced with 50 ng/ml EGF
# T3 construct: host or cells: NIH3T3
# Method: as §1, §2, §3, §4
# [3] = EGFR (L858R/T790M) IC50 (μM) 90 min pre-incubation, 90 min pre-incubation
# [4] = no pre-incubation, read-out: EGFR (L858R/T790M) IC50 (μM) No pre-incubation
# T3 sequence (P00533 25-1210): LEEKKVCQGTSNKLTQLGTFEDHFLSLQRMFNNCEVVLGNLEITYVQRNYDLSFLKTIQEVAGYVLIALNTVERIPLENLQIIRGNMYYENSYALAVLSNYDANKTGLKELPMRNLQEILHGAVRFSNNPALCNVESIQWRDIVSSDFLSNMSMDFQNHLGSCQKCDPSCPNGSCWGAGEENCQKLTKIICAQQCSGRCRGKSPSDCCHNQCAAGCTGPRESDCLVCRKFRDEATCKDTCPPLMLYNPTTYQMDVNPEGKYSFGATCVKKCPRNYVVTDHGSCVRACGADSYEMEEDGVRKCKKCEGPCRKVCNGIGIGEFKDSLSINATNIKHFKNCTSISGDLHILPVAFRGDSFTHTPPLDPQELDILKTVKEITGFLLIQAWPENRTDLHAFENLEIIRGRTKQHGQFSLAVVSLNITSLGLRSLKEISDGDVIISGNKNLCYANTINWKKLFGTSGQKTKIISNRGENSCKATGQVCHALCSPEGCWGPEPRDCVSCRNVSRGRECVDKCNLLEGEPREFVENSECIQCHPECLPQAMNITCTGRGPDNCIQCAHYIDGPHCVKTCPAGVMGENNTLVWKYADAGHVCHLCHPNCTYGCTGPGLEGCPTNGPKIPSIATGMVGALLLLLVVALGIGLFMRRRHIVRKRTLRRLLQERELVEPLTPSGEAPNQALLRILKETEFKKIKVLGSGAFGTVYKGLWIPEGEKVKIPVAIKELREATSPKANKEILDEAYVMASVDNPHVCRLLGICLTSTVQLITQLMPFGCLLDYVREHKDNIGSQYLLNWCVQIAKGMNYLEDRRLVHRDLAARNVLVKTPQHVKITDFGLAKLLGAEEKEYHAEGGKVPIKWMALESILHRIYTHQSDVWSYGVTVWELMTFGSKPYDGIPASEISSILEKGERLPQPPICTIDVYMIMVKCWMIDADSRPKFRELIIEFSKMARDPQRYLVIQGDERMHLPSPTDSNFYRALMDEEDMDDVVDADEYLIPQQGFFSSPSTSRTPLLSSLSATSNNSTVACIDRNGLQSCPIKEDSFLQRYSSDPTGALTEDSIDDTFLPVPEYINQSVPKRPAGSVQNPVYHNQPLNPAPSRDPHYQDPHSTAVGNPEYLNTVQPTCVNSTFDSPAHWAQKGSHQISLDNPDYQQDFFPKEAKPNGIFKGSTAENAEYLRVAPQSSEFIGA
# T2 sequence (P00533 25-1210 L858R): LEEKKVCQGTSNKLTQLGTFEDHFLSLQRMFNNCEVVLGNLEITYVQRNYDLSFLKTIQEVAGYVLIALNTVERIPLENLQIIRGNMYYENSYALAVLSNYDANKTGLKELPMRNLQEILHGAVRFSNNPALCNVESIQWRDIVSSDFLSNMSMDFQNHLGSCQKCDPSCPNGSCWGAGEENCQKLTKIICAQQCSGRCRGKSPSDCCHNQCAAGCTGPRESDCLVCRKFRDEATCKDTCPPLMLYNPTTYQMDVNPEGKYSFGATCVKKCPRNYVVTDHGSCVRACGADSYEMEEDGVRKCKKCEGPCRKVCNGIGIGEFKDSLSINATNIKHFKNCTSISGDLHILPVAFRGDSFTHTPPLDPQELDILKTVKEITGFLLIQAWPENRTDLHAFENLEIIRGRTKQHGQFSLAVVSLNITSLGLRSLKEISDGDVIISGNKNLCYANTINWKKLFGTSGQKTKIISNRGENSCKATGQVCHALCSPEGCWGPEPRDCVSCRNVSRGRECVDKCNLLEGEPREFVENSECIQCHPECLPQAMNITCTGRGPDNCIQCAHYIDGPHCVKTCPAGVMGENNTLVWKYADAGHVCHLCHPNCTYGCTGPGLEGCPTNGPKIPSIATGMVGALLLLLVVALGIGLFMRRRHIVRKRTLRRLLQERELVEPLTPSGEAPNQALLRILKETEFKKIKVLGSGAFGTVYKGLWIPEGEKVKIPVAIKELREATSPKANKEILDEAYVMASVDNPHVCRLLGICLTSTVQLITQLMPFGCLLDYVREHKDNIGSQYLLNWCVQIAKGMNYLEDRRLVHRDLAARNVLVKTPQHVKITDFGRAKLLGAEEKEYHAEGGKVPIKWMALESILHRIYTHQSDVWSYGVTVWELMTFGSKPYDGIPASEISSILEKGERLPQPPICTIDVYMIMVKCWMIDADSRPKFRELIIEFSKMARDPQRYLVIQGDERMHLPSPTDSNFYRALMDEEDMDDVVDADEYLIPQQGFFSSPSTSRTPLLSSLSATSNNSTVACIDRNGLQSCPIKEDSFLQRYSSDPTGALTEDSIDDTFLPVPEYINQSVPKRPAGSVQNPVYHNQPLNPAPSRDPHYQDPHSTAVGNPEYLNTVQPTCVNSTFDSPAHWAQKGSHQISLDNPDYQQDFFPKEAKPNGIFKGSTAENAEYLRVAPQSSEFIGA
IC50 (EGFR(L858R/T790M) [1]; [3]) [µM],IC50 (EGFR(L858R/T790M) [1]; [4]) [µM],IC50 (EGFR(L858R/T790M) [2]) [µM],IC50 (EGFR (L858R)) [µM],IC50 (EGFR (WT)) [µM],Compound
0.051,0.27,0.41,> 3.7,> 10,"C=CC(=O)N[C@@H]1CCC[C@@H](n2c(NC(=O)c3cccc(C(F)(F)F)c3)nc3cc(C)ccc32)C1 (racemic) [Example 8-2, N-{5-methyl-1-[(1S,3S)-3-(prop-2-enamido)cyclohexyl]-1H-1,3-benzodiazol-2-yl}-3-(trifluoromethyl)benzamide]"
0.002,0.016,0.037,0.053,> 10,"C=CC(=O)Nc1cccc(-n2c(NC(=O)c3ccc(F)cc3)nc3cc(C)ccc32)c1 [Example 1, N-(1-(3-acrylamidophenyl)-5-methyl-1H-benzo[d]imidazol-2-yl)-4-fluorobenzamide]"
0.003,0.023,0.028,0.33,> 10,"C=CC(=O)Nc1cccc(-n2c(NC(=O)c3cccc(F)c3)nc3cc(C)ccc32)c1 [Example 2-1, 3-fluoro-N-{5-methyl-1-[3-(prop-2-enamido)phenyl]-1H-1,3-benzodiazol-2-yl}benzamide]"
0.002,0.054,0.08,0.2,> 10,"C=CC(=O)Nc1cccc(-n2c(NC(=O)c3ccc(F)c(F)c3)nc3cc(C)ccc32)c1 [Example 2-2, 3,4-difluoro-N-{5-methyl-1-[3-(prop-2-enamido)phenyl]-1H-1,3-benzodiazol-2-yl}benzamide]"
0.034,0.39,0.98,0.77,> 10,"C=CC(=O)Nc1cccc(-n2c(NC(=O)c3ccc(C)cc3)nc3cc(C)ccc32)c1 [Example 2-3, 4-methyl-N-{5-methyl-1-[3-(prop-2-enamido)phenyl]-1H-1,3-benzodiazol-2-yl}benzamide]"
0.023,0.27,0.22,0.33,> 10,"C=CC(=O)Nc1cccc(-n2c(NC(=O)c3ccc(Cl)c(Cl)c3)nc3cc(C)ccc32)c1 [Example 2-4, 3,4-dichloro-N-{5-methyl-1-[3-(prop-2-enamido)phenyl]-1H-1,3-benzodiazol-2-yl}benzamide]"
0.012,0.14,0.17,1.3,> 10,"C=CC(=O)Nc1cccc(-n2c(NC(=O)c3cccc(C)c3)nc3cc(C)ccc32)c1 [Example 2-5, 3-methyl-N-{5-methyl-1-[3-(prop-2-enamido)phenyl]-1H-1,3-benzodiazol-2-yl}benzamide]"
< 0.001,0.021,0.062,0.27,> 10,"C=CC(=O)Nc1cccc(-n2c(NC(=O)c3cccc(Oc4ccccc4)c3)nc3cc(C)ccc32)c1 [Example 2-6, N-{5-methyl-1-[3-(prop-2-enamido)phenyl]-1H-1,3-benzodiazol-2-yl}-3-phenoxybenzamide]"
< 0.001,0.006,0.007,0.023,> 10,"C=CC(=O)Nc1cccc(-n2c(NC(=O)c3cccc(-c4ccccc4)c3)nc3cc(C)ccc32)c1 [Example 2-7, N-{5-methyl-1-[3-(prop-2-enamido)phenyl]-1H-1,3-benzodiazol-2-yl}-3-phenylbenzamide]"
0.013,0.18,0.38,0.64,> 10,"C=CC(=O)Nc1cccc(-n2c(NC(=O)c3ccc4ccccc4c3)nc3cc(C)ccc32)c1 [Example 2-8, N-{5-methyl-1-[3-(prop-2-enamido)phenyl]-1H-1,3-benzodiazol-2-yl}naphthalene-2-carboxamide]"
0.006,0.049,0.052,0.55,> 10,"C=CC(=O)Nc1cccc(-n2c(NC(=O)c3cccc(C(F)(F)F)c3)nc3cc(C)ccc32)c1 [Example 2-9, N-{5-methyl-1-[3-(prop-2-enamido)phenyl]-1H-1,3-benzodiazol-2-yl}-3-(trifluoromethyl)benzamide]"
0.003,0.085,0.11,0.66,> 8,"C=CC(=O)N(C)c1cccc(-n2c(NC(=O)c3cccc(C(F)(F)F)c3)nc3cc(C)ccc32)c1 [Example 2-10, N-{5-methyl-1-[3-(N-methylprop-2-enamido)phenyl]-1H-1,3-benzodiazol-2-yl}-3-(trifluoromethyl)benzamide]"
0.004,0.057,0.079,0.31,> 10,"C=CC(=O)Nc1cccc(-n2c(NC(=O)c3cccc(C(F)(F)F)c3)nc3cccc(C)c32)c1 [Example 2-13, N-{7-methyl-1-[3-(prop-2-enamido)phenyl]-1H-1,3-benzodiazol-2-yl}-3-(trifluoromethyl)benzamide]"
0.003,0.028,0.036,0.45,> 10,"C=CC(=O)Nc1cccc(-n2c(NC(=O)c3cccc(C(F)(F)F)c3)nc3cc(CO)ccc32)c1 [Example 3, N-(1-(3-acrylamidophenyl)-5-(hydroxymethyl)-1H-benzo[d]imidazol-2-yl)-3-(trifluoromethyl)benzamide]"
0.005,0.071,0.1,1.1,> 10,"C=CC(=O)Nc1cccc(-n2c(NC(=O)c3cccc(C(F)(F)F)c3)nc3cc(COCC)ccc32)c1 [Example 4, N-(1-(3-acrylamidophenyl)-5-(ethoxymethyl)-1H-benzo[d]imidazol-2-yl)-3-(trifluoromethyl)benzamide]"
< 0.001,0.022,0.02,0.86,> 10,"C=CC(=O)Nc1cccc(-n2c(NC(=O)c3cccc(C(F)(F)F)c3)nc3cc(COC)ccc32)c1 [Example 5-1, N-[5-(methoxymethyl)-1-[3-(prop-2-enamido)phenyl]-1H-1,3-benzodiazol-2-yl]-3-(trifluoromethyl)benzamide]"
0.007,0.039,0.013,0.18,> 10,"C=CC(=O)Nc1cccc(-n2c(NC(=O)c3cccc(C(F)(F)F)c3)nc3cc(CN4CCCC4)ccc32)c1 [Example 5-2, N-[1-[3-(prop-2-enamido)phenyl]-5-(pyrrolidin-1-ylmethyl)-1H-1,3-benzodiazol-2-yl]-3-(trifluoromethyl)benzamide]"
